Measured values as given in BindingDB's records for doi:10.1186/2191-2858-2-21 (University of The West Indies, 2012).

Experiments:
Cytochrome P450 2C19 = Cytochrome P450 2C19 (Homo sapiens, UniProt P33261); test: CYP Inhibition Assay
Experimental: (§1) The test compounds were evaluated for their ability to inhibit the catlytic activity of human CYP1 enzymes by means of high throughput fluorometric detection assay conducted in 96-well microtitre plates.

Cytochrome P450 1A1 = molecular target: T1, Cytochrome P450 1A1 (Homo sapiens, UniProt P04798); test: CYP Inhibition Assay
T1 sequence (P04798 whole entry): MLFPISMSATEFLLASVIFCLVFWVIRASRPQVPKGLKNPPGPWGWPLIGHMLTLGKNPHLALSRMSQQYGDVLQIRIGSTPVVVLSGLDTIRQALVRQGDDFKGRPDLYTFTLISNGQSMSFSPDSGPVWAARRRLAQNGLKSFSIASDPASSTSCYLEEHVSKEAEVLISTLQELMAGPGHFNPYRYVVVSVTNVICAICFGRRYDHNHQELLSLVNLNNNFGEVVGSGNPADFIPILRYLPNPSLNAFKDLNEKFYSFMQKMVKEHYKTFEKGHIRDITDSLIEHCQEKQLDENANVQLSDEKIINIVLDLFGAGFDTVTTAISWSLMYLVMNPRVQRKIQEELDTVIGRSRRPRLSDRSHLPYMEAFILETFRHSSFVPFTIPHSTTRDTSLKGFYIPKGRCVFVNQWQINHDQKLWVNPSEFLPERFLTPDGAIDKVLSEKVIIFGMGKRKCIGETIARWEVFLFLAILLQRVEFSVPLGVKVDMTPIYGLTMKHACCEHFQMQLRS
Experimental: as §1

Sequence of Cytochrome P450 2C19 (P33261 whole entry): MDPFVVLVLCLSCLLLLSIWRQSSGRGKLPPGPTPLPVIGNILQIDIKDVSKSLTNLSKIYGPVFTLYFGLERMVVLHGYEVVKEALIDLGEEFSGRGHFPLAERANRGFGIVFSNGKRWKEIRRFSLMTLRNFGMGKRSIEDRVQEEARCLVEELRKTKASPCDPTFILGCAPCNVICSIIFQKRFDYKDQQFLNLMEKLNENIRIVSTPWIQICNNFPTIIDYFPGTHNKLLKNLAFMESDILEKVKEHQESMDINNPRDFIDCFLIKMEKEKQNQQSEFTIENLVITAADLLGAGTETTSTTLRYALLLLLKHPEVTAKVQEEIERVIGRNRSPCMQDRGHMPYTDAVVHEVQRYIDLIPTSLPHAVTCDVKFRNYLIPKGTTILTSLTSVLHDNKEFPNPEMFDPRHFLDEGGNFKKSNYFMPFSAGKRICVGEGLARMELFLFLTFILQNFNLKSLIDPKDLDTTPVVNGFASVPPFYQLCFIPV

Compound: CC(C)(O)CCCC1(C)CC(=O)c2cc(O)c(Br)cc2O1 (configuration not stated) [PBQ1]
- IC50 (Cytochrome P450 2C19): 80 nM
- IC50 (Cytochrome P450 1A1): 390 nM
